#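 Five compound concentrations were applied to cells in 96-well plates for 48 hours; endpoints were derived by simple linear interpolation of the resulting dose-response curve. GI50 marks 50% less growth. TGI is the concentration that stops growth completely.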
# Tests used:
# Assay in all cases: NCI-60 cell line screen, 48 h
# 786-0 renal = system: 786-0 renal
# A549 NSCLC = system: A549 NSCLC
# ACHN renal = system: ACHN renal
# BT-549 breast = system: BT-549 breast
# CCRF-CEM leukemia = system: CCRF-CEM leukemia
# COLO 205 colon = system: COLO 205 colon
# DU-145 prostate = system: DU-145 prostate
# EKVX NSCLC = system: EKVX NSCLC
# HCC-2998 colon = system: HCC-2998 colon
# HCT-116 colon = system: HCT-116 colon
# HCT-15 colon = system: HCT-15 colon
# HOP-62 NSCLC = system: HOP-62 NSCLC
# HOP-92 NSCLC = system: HOP-92 NSCLC
# HT29 colon = system: HT29 colon
# IGROV1 ovarian = system: IGROV1 ovarian
# K-562 leukemia = system: K-562 leukemia
# KM12 colon = system: KM12 colon
# LOX IMVI melanoma = system: LOX IMVI melanoma
# M14 melanoma = system: M14 melanoma
# MCF7 breast = system: MCF7 breast
# MDA-MB-231 breast = system: MDA-MB-231 breast
# MDA-MB-435 = system: MDA-MB-435
# MDA-N = system: MDA-N
# MOLT-4 leukemia = system: MOLT-4 leukemia
# NCI-H23 lung = system: NCI-H23 lung
# NCI-H522 lung = system: NCI-H522 lung
# NCI/ADR-RES ovarian = system: NCI/ADR-RES ovarian
# OVCAR-3 ovarian = system: OVCAR-3 ovarian
# OVCAR-4 ovarian = system: OVCAR-4 ovarian
# OVCAR-5 ovarian = system: OVCAR-5 ovarian
# OVCAR-8 ovarian = system: OVCAR-8 ovarian
# PC-3 prostate = system: PC-3 prostate
# RPMI-8226 leukemia = system: RPMI-8226 leukemia
# RXF 393 renal = system: RXF 393 renal
# SF-268 CNS = system: SF-268 CNS
# SF-295 CNS = system: SF-295 CNS
# SF-539 CNS = system: SF-539 CNS
# SK-MEL-2 melanoma = system: SK-MEL-2 melanoma
# SK-MEL-28 melanoma = system: SK-MEL-28 melanoma
# SK-MEL-5 melanoma = system: SK-MEL-5 melanoma
# SK-OV-3 ovarian = system: SK-OV-3 ovarian
# SN12C renal = system: SN12C renal
# SNB-19 CNS = system: SNB-19 CNS
# SNB-75 CNS = system: SNB-75 CNS
# SR leukemia = system: SR leukemia
# SW-620 colon = system: SW-620 colon
# TK-10 renal = system: TK-10 renal
# U251 CNS = system: U251 CNS
# UACC-257 melanoma = system: UACC-257 melanoma
# UACC-62 melanoma = system: UACC-62 melanoma
# UO-31 renal = system: UO-31 renal
# A498 renal = system: A498 renal
# CAKI-1 renal = system: CAKI-1 renal
# HL-60(TB) leukemia = system: HL-60(TB) leukemia
# HS 578T breast = system: HS 578T breast
# MALME-3M melanoma = system: MALME-3M melanoma
# NCI-H226 lung = system: NCI-H226 lung
# NCI-H460 lung = system: NCI-H460 lung
# T-47D breast = system: T-47D breast
smiles,measurement,setting,value
CC(=O)N(C(C)=O)n1c(-c2ccccc2)n[nH]c1=O,TGI,786-0 renal,> 100 µM
same,TGI,A549 NSCLC,> 100 µM
same,TGI,ACHN renal,> 100 µM
same,TGI,BT-549 breast,> 100 µM
same,TGI,CCRF-CEM leukemia,> 100 µM
same,TGI,COLO 205 colon,> 100 µM
same,TGI,DU-145 prostate,> 100 µM
same,TGI,EKVX NSCLC,> 100 µM
same,TGI,HCC-2998 colon,> 100 µM
same,TGI,HCT-116 colon,> 100 µM
same,TGI,HCT-15 colon,> 100 µM
same,TGI,HOP-62 NSCLC,> 100 µM
same,TGI,HOP-92 NSCLC,> 100 µM
same,TGI,HT29 colon,> 100 µM
same,TGI,IGROV1 ovarian,> 100 µM
same,TGI,K-562 leukemia,> 100 µM
same,TGI,KM12 colon,> 100 µM
same,TGI,LOX IMVI melanoma,> 100 µM
same,TGI,M14 melanoma,> 100 µM
same,TGI,MCF7 breast,> 100 µM
same,TGI,MDA-MB-231 breast,> 100 µM
same,TGI,MDA-MB-435,> 100 µM
same,TGI,MDA-N,> 100 µM
same,TGI,MOLT-4 leukemia,> 100 µM
same,TGI,NCI-H23 lung,> 100 µM
same,TGI,NCI-H522 lung,> 100 µM
same,TGI,NCI/ADR-RES ovarian,> 100 µM
same,TGI,OVCAR-3 ovarian,> 100 µM
same,TGI,OVCAR-4 ovarian,> 100 µM
same,TGI,OVCAR-5 ovarian,> 100 µM
same,TGI,OVCAR-8 ovarian,> 100 µM
same,TGI,PC-3 prostate,> 100 µM
same,TGI,RPMI-8226 leukemia,> 100 µM
same,TGI,RXF 393 renal,> 100 µM
same,TGI,SF-268 CNS,> 100 µM
same,TGI,SF-295 CNS,> 100 µM
same,TGI,SF-539 CNS,> 100 µM
same,TGI,SK-MEL-2 melanoma,> 100 µM
same,TGI,SK-MEL-28 melanoma,> 100 µM
same,TGI,SK-MEL-5 melanoma,> 100 µM
same,TGI,SK-OV-3 ovarian,> 100 µM
same,TGI,SN12C renal,> 100 µM
same,TGI,SNB-19 CNS,> 100 µM
same,TGI,SNB-75 CNS,> 100 µM
same,TGI,SR leukemia,> 100 µM
same,TGI,SW-620 colon,> 100 µM
same,TGI,TK-10 renal,> 100 µM
same,TGI,U251 CNS,> 100 µM
same,TGI,UACC-257 melanoma,> 100 µM
same,TGI,UACC-62 melanoma,> 100 µM
same,TGI,UO-31 renal,> 100 µM
NC1=C(c2nc(-c3ccccc3)cs2)C(c2ccc(Br)cc2)c2c(c3ccccc3oc2=O)O1 (stereo not drawn),GI50,786-0 renal,75.6 µg/mL
same,TGI,786-0 renal,> 150 µg/mL
same,GI50,A498 renal,33.9 µg/mL
same,TGI,A498 renal,> 150 µg/mL
same,GI50,A549 NSCLC,46 µg/mL
same,TGI,A549 NSCLC,> 150 µg/mL
same,GI50,ACHN renal,129 µg/mL
same,TGI,ACHN renal,> 150 µg/mL
same,GI50,CAKI-1 renal,70 µg/mL
same,TGI,CAKI-1 renal,> 150 µg/mL
same,GI50,CCRF-CEM leukemia,66.9 µg/mL
same,TGI,CCRF-CEM leukemia,> 150 µg/mL
same,GI50,COLO 205 colon,78.1 µg/mL
same,TGI,COLO 205 colon,> 150 µg/mL
same,GI50,DU-145 prostate,128 µg/mL
same,TGI,DU-145 prostate,> 150 µg/mL
same,GI50,EKVX NSCLC,50.2 µg/mL
same,TGI,EKVX NSCLC,> 150 µg/mL
same,GI50,HCC-2998 colon,130 µg/mL
same,TGI,HCC-2998 colon,> 150 µg/mL
same,GI50,HCT-116 colon,79.6 µg/mL
same,TGI,HCT-116 colon,> 150 µg/mL
same,GI50,HCT-15 colon,70.1 µg/mL
same,TGI,HCT-15 colon,> 150 µg/mL
same,GI50,HL-60(TB) leukemia,21.9 µg/mL
same,TGI,HL-60(TB) leukemia,97.2 µg/mL
same,GI50,HOP-62 NSCLC,116 µg/mL
same,TGI,HOP-62 NSCLC,> 150 µg/mL
same,GI50,HOP-92 NSCLC,38.4 µg/mL
same,TGI,HOP-92 NSCLC,102 µg/mL
same,GI50,HS 578T breast,30.4 µg/mL
same,TGI,HS 578T breast,91.4 µg/mL
same,GI50,HT29 colon,148 µg/mL
same,TGI,HT29 colon,> 150 µg/mL
same,GI50,IGROV1 ovarian,96 µg/mL
same,TGI,IGROV1 ovarian,> 150 µg/mL
same,GI50,K-562 leukemia,77.1 µg/mL
same,TGI,K-562 leukemia,> 150 µg/mL
same,GI50,KM12 colon,> 150 µg/mL
same,TGI,KM12 colon,> 150 µg/mL
same,GI50,LOX IMVI melanoma,> 150 µg/mL
same,TGI,LOX IMVI melanoma,> 150 µg/mL
same,GI50,M14 melanoma,90.1 µg/mL
same,TGI,M14 melanoma,> 150 µg/mL
same,GI50,MALME-3M melanoma,> 150 µg/mL
same,TGI,MALME-3M melanoma,> 150 µg/mL
same,GI50,MCF7 breast,> 150 µg/mL
same,TGI,MCF7 breast,> 150 µg/mL
same,GI50,MDA-MB-231 breast,39.2 µg/mL
same,TGI,MDA-MB-231 breast,> 150 µg/mL
same,GI50,MDA-MB-435,> 150 µg/mL
same,TGI,MDA-MB-435,> 150 µg/mL
same,GI50,MDA-N,63.7 µg/mL
same,TGI,MDA-N,> 150 µg/mL
same,GI50,MOLT-4 leukemia,33 µg/mL
same,TGI,MOLT-4 leukemia,118 µg/mL
same,GI50,NCI-H226 lung,22.3 µg/mL
same,TGI,NCI-H226 lung,94 µg/mL
same,GI50,NCI-H23 lung,71 µg/mL
same,TGI,NCI-H23 lung,> 150 µg/mL
same,GI50,NCI-H460 lung,66.8 µg/mL
same,TGI,NCI-H460 lung,> 150 µg/mL
same,GI50,NCI-H522 lung,47.1 µg/mL
same,TGI,NCI-H522 lung,> 150 µg/mL
same,GI50,NCI/ADR-RES ovarian,> 150 µg/mL
same,TGI,NCI/ADR-RES ovarian,> 150 µg/mL
same,GI50,OVCAR-3 ovarian,> 150 µg/mL
same,TGI,OVCAR-3 ovarian,> 150 µg/mL
same,GI50,OVCAR-4 ovarian,34.3 µg/mL
same,TGI,OVCAR-4 ovarian,99.9 µg/mL
same,GI50,OVCAR-5 ovarian,> 150 µg/mL
same,TGI,OVCAR-5 ovarian,> 150 µg/mL
same,GI50,OVCAR-8 ovarian,112 µg/mL
same,TGI,OVCAR-8 ovarian,> 150 µg/mL
same,GI50,PC-3 prostate,> 150 µg/mL
same,TGI,PC-3 prostate,> 150 µg/mL
same,GI50,RXF 393 renal,40.7 µg/mL
same,TGI,RXF 393 renal,141 µg/mL
same,GI50,SF-268 CNS,89.7 µg/mL
same,TGI,SF-268 CNS,> 150 µg/mL
same,GI50,SF-295 CNS,> 150 µg/mL
same,TGI,SF-295 CNS,> 150 µg/mL
same,GI50,SF-539 CNS,104 µg/mL
same,TGI,SF-539 CNS,> 150 µg/mL
same,GI50,SK-MEL-2 melanoma,89 µg/mL
same,TGI,SK-MEL-2 melanoma,> 150 µg/mL
same,GI50,SK-MEL-28 melanoma,79.9 µg/mL
same,TGI,SK-MEL-28 melanoma,> 150 µg/mL
same,GI50,SK-MEL-5 melanoma,> 150 µg/mL
same,TGI,SK-MEL-5 melanoma,> 150 µg/mL
same,GI50,SK-OV-3 ovarian,60.1 µg/mL
same,TGI,SK-OV-3 ovarian,> 150 µg/mL
same,GI50,SN12C renal,85.9 µg/mL
same,TGI,SN12C renal,> 150 µg/mL
same,GI50,SNB-19 CNS,58.3 µg/mL
same,TGI,SNB-19 CNS,> 150 µg/mL
same,GI50,SNB-75 CNS,2.39 µg/mL
same,TGI,SNB-75 CNS,36.7 µg/mL
same,GI50,SR leukemia,55.2 µg/mL
same,TGI,SR leukemia,> 150 µg/mL
same,GI50,SW-620 colon,73.9 µg/mL
same,TGI,SW-620 colon,> 150 µg/mL
same,GI50,T-47D breast,44.3 µg/mL
same,TGI,T-47D breast,> 150 µg/mL
same,GI50,TK-10 renal,> 150 µg/mL
same,TGI,TK-10 renal,> 150 µg/mL
same,GI50,U251 CNS,48.2 µg/mL
same,TGI,U251 CNS,> 150 µg/mL
same,GI50,UACC-257 melanoma,> 150 µg/mL
same,TGI,UACC-257 melanoma,> 150 µg/mL
same,GI50,UACC-62 melanoma,52.1 µg/mL
same,TGI,UACC-62 melanoma,> 150 µg/mL

# From PubChem BioAssay (NCI)
